# Reference: patent US5929099A, “Pharmaceutical composition for inhibiting the growth of cancers” (Procter & Gamble Co., priority 1996, dated 1999)
# Where two headings read alike, the source gives them in different places.
# How the values were obtained:
# lung tumor cells (A-549) = test: Related study, lung tumor cells, optical density (Table 3); type: cell-based, human; conditions: for Optical Density: 0-Control 0.600
# From the text: (§1) Table 3 summarizes the results
# [1] = system: breast tumor cells (MCF-7); test: Related study, breast tumor cells, optical density (Table 3); type: cell-based; conditions: for Optical Density: 0-Control 0.245
# From the text: as §1
# [2] = system: colon tumor cells (HT-29); test: Related study, colon tumor cells, optical density (Table 3); type: cell-based, human; conditions: for Optical Density: 0-Control 0.398
# From the text: as §1
# [3] = system: HIV-1 in chronic infected U1 cells (HIV monocytes); test: HIV chronic study, monocyte HIV replication; type: cell-based; conditions: Human immunodeficiency virus 1, Monocyte
# Description: (§2) These cells were treated with test samples.
# [4] = system: HIV-1 in chronic infected ACH-2 cells (T-cell); test: HIV chronic study, T-cell HIV replication; type: cell-based; conditions: Human immunodeficiency virus 1, ACH-2
# Description: as §2
# HIV = test: In vitro acute model for HIV, viral replication; type: cell-based; conditions: read-out: inhibited viral replication
# Description: In an in vitro acute model for HIV carbendazim inhibited viral replication by 100% at 4 μg/ml and AZT inhibited viral replication by 98% at 1 μg/ml. Thiabendazole inhibited viral replication by 98% at 60 μg/ml.
# HT29 colon tumor cells = test: MTT cell viability, colon tumor cells (Table 1); type: cell-based; conditions: Homo sapiens, HT-29, 120 h, approx. 5 days, read-out: EC-50 Result
# Description: (§3) The following cell culture tests were performed to test the toxicity of the benzimidazole compounds on colon, breast and lung human tumor cells. The viability of the cells were tested by looking at MTT (3-[4,5-dimethylthiazol-2-yl]-2,5-diphenyltetrazolium bromide) reduction. MTT assay is a well known measure of cell viability.
# (§4) The colon tumor cells (HT29 from American Type Culture Collection (ATCC)) and the breast cells (MX1 from cell lines from ATCC) were cultured in Eagle's Miminal Essential Medium with 10% fetal bovine serum. The lung tumor cells (A549 from ATCC cell lines) were cultured in Ham's F12 medium with 10% fetal bovine serum.
# (§5) The tumor cells were passaged and seeded into culture flasks at the desired cell densities. The culture medium was decanted and the cell sheets were washed twice with phosphate buffered saline (PBS). The cells were trypsinized and triturated prior to seeding the flasks. Unless otherwise indicated the cultures were incubated at 37±1° C. in a humidified atmosphere of 5±1% carbon dioxide in air. The cultures were incubated until they were 50-80% confluent.
# (§6) The cells were subcultured when the flasks were subconfluent. The medium was aspirated from the flasks and the cell sheets rinsed twice with PBS. Next, the Trypsin Solution was added to each flask to cover the cell sheet. The Trypsin Solution was removed after 30-60 seconds and the flasks were incubated at room temperature for two to six minutes. When 90% of the cells became dislodged, growth medium was added. The cells were removed by trituration and transferred to a sterile centrifuge tube. The concentration of cells in the suspension was determined, and an appropriate dilution was made to obtain a density of 5000 cells/ml. The cells were subcultured into the designated wells of the 96-well bioassay plates (200 microliter cell suspension per well). PBS was added to all the remaining wells to maintain humidity. The plates were then incubated overnight before test article treatment.
# (§7) Each dose of test article was tested by treating quadruplicate wells of cultures with 100 microliter of each dilution. Those wells designated as solvent controls received an additional 100 microliter of methanol control; negative controls wells received an additional 100 microliters of treatment medium. PBS was added to the remaining wells not treated with test article or medium. The plates were then incubated for approximately 5 days.
# (§8) At the end of the 5 day incubation, each dose group was examined microscopically to assess toxicity. A 0.5 mg/ml dilution of MTT was made in treatment medium, and the dilution was filtered through a 0.45 micrometer filter to remove undissolved crystals. The medium was decanted from the wells of the bioassy plates. Immediately thereafter, […] of the filtered MTT solution was added to all test wells except for the two untreated blank test wells. The two blank wells received 200 microliters of treatment medium. The plates were returned to the incubator for about 3 hours. After incubation, the MTT containing medium was decanted. […] was added to each well and the plates were shaken at room temperature for about 2 hours.
# (§9) The absorbance at 550 mn (OD550) of each well was measured with a Molecular Devices (Menlo Park, Calif.) VMax plate reader.
# (§10) The mean OD550 of the solvent control wells and that of each test article dilution, and that of each of the blank wells and the positive control were calculated. The mean OD550 of the blank wells was subtracted from the mean of the solvent control wells, and test article wells, respectively to give the corresponding mean OD550. [formula]
# (§11) Dose response curves were prepared as semi-log plots with % of control on the ordinate (linear) and the test article concentration on the abscissa (logarithmic). The EC50 was interpolated from the plots for each test article.
# (§12) For the test articles administered in methanol, separate responses were prepared to correct for the methanol data. […]
# MX1 breast tumor cells = test: MTT cell viability, breast tumor cells (Table 1); type: cell-based; conditions: Homo sapiens, 120 h, approx. 5 days, read-out: EC-50 Result
# Description: as §3, §4, §5, §6, §7, §8, §9, §10, §11, §12
# A549 lung tumor cells = test: MTT cell viability, lung tumor cells (Table 1); type: cell-based; conditions: Homo sapiens, A549, 120 h, approx. 5 days, read-out: EC-50 Result
# Description: as §3, §4, §5, §6, §7, §8, §9, §10, §11, §12
# [5] = Toxicity to normal healthy cells (Table 2); type: cell-based; conditions: read-out: EC-50 (the source's name)
# From the text: The EC50 is the concentration at which one half of the cells are killed.
# (§13) In normal healthy cells, the following results were obtained.
# [6] = system: colon, breast and lung human tumor cells; test: Colon, breast and lung tumor cells test, overall comparison; type: cell-based; conditions: positive control, in all cases
# Description: as §3, §4
# The tumor cells were passaged and seeded into culture flasks at the desired cell densities. The culture medium was decanted and the cell sheets were washed twice with phosphate buffered saline (PBS). The cells were trypsinized and triturated prior to seeding the flasks. […]
# The cells were subcultured when the flasks were subconfluent. […] The concentration of cells in the suspension was determined, and an appropriate dilution was made to obtain a density of 5000 cells/ml. […]
# as §9
# The mean OD550 of the solvent control wells and that of each test article dilution, and that of each of the blank wells and the positive control were calculated. […]
# HIV-1 = test: HIV chronic study, therapeutic index
# Description: Chronic HIV-1 infected cells U1 were derived from an acute HIV-1 infection of the promonocytic cell line, U937. The chronic HIV-1 infected cells, ACH-2 were derived from an acute HIV-1 infection of the T cell line, A3.01.
# These cells were cultured in medium and the phorbol ester, PMA. […] Cell viability was measured when these cell lines were treated with the test compounds.
# In addition, the number of institute positive HIV mRNA expressing cells per microscopic field is measured. Comparisons can be made from these numbers since the same number of cells were adhered to the glass slides for each drug concentration (10×10^6 cells/ml).
# normal healthy cells = test: Toxicity to normal healthy cells, overall comparison; type: cell-based; conditions: versus adriamycin
# From the text: as §13
# MX1 breast cancer tumors = test: Mouse model for breast cancer, subcutaneous tumor growth; type: in vivo; conditions: 500 mg/kg; MX1 implanted subcutaneously
# Description: (§14) In a mouse model for breast, lung and colon cancer Carbendazim slowed tumor growth. MX1 breast cancer tumors implanted subcutaneously under the mice skin were treated with 500 mg/kg of Carbendazim. Tumor growth was slowed by 42%. Carbendazim slowed tumor growth in lung A549 tumors implanted subcutaneously under the mice skin by 57% at the same dose. In a screening test of HT29 tumors implanted subcutaneously under the mice skin, tumor growth was slowed 54% at 2500 mg/kg dose of Carbendazim.
# lung A549 tumors = test: Mouse model for lung cancer, subcutaneous tumor growth; type: in vivo; conditions: same dose (500 mg/kg); A549 implanted subcutaneously
# Description: as §14
# HT29 tumors = test: Mouse model for colon cancer, subcutaneous tumor growth; type: in vivo; conditions: 2500 mg/kg; HT29 implanted subcutaneously; screening test
# Description: as §14
# leukemia, P388 = test: In vivo mouse model for leukemia, life span
# melanoma, B 16 = test: In vivo mouse model for melanoma, life span
# melanoma = test: In vivo mouse model for melanoma, combination with Navelbine, survival time
# [7] = bronchial cells, Broncheal Cells, first value
# [8] = bronchial cells, Broncheal Cells, second value
# [9] = kerotinoyle cells, second value
compound,measurement,setting,value
"c1ccc2[nH]c(-c3cscn3)nc2c1 [Thiabendazole, 2-(4-thiazolyl)-1 H-benzimidazole]",killing of tumor cells,lung tumor cells (A-549),effectively killed these cells
same,Optical Density,lung tumor cells (A-549); 0.87 ppm,1.32
same,Optical Density,lung tumor cells (A-549); 3.46 ppm,1.12
same,Optical Density,lung tumor cells (A-549); 17.3 ppm,0.851
same,Optical Density,lung tumor cells (A-549); 35 ppm,0.411
same,Optical Density,lung tumor cells (A-549); 173 ppm,0.007
same,killing of tumor cells,[1],effectively killed these cells
same,Optical Density,[1]; 0.87 ppm,0.507
same,Optical Density,[1]; 3.46 ppm,0.466
same,Optical Density,[1]; 17.3 ppm,0.258
same,Optical Density,[1]; 35 ppm,0.025
same,Optical Density,[1]; 173 ppm,0.007
same,killing of tumor cells,[2],effectively killed these cells
same,Optical Density,[2]; 0.87 ppm,0.852
same,Optical Density,[2]; 3.46 ppm,0.713
same,Optical Density,[2]; 17.3 ppm,0.204
same,Optical Density,[2]; 35 ppm,0.011
same,Optical Density,[2]; 173 ppm,0.005
same,inhibition at 60 µg/mL,"[3]; 60 μg/ml, read-out: suppressed replication in the HIV monocytes",74%
same,activation at 60 µg/mL,"[4]; 60 μg/ml, increase, read-out: T-cell HIV replication was increased",26%
same,inhibition at 60 µg/mL,"HIV; Human immunodeficiency virus 1, 60 μg/ml",98%
COc1cccc2c1C(=O)c1c(O)c3c(c(O)c1C2=O)C[C@@](O)(C(=O)CO)C[C@@H]3O[C@H]1C[C@H](N)[C@H](O)[C@H](C)O1 [Adriamycin],IC50,"HT29 colon tumor cells; HT29, first column",0.03 µg/mL
same,IC50,"HT29 colon tumor cells; HT29, second column",0.006 µg/mL
same,IC50,"MX1 breast tumor cells; MX1, first column",0.02 µg/mL
same,IC50,"MX1 breast tumor cells; MX1, second column",0.001 µg/mL
same,IC50,"A549 lung tumor cells; A549, first column",0.03 µg/mL
same,IC50,"A549 lung tumor cells; A549, second column",0.009 µg/mL
same,CC50,[5]; [7],0.015 µg/mL
same,CC50,[5]; [8],0.002 µg/mL
same,CC50,"[5]; fibroblasts, first value",0.065 µg/mL
same,CC50,"[5]; fibroblasts, second value",0.1 µg/mL
same,CC50,"[5]; kerotinoyle cells, first value",0.0035 µg/mL
same,CC50,[5]; [9],0.0093 µg/mL
same,toxicity relative to the test materials,[6],more toxic than any of the test materials by one or two logs
Cc1cn([C@H]2C[C@H](N=[N+]=[N-])[C@@H](CO)O2)c(=O)[nH]c1=O [AZT],inhibition at 1 µg/mL,"[3]; 1 μg/ml, positive control, read-out: suppressed HIV monocytes replication",98%
same,inhibition at 1 µg/mL,"[4]; positive control AZT (1 μg/ml), read-out: suppressed T-cell HIV replication",60%
same,inhibition at 1 µg/mL,"HIV; Human immunodeficiency virus 1, 1 μg/ml",98%
same,"therapeutic index (TI), the ratio of the toxic dose of drug to efficacious dose of drug",HIV-1,"12, 500"
"COC(=O)Nc1nc2ccccc2[nH]1 [carbendazim, methyl 2-benzimidazole carbamate]",IC50,"HT29 colon tumor cells; HT29, first column",0.621 µg/mL
same,IC50,"HT29 colon tumor cells; HT29, second column",0.662 µg/mL
same,IC50,"MX1 breast tumor cells; MX1, first column",0.829 µg/mL
same,IC50,"MX1 breast tumor cells; MX1, second column",0.856 µg/mL
same,IC50,"A549 lung tumor cells; A549, first column",0.856 µg/mL
same,IC50,"A549 lung tumor cells; A549, second column",0.836 µg/mL
same,CC50,[5]; [7],0.32 µg/mL
same,CC50,[5]; [8],0.506 µg/mL
same,CC50,"[5]; fibroblasts, first value",1.52 µg/mL
same,CC50,"[5]; fibroblasts, second value",1.42 µg/mL
same,CC50,"[5]; kerotinoyle cells, first value",0.752 µg/mL
same,CC50,[5]; [9],0.822 µg/mL
same,toxicity to normal healthy cells relative to adriamycin,normal healthy cells,much less toxic to normal healthy cells than adriamycin
same,Tumor growth was slowed by,MX1 breast cancer tumors,42%
same,slowed tumor growth by,lung A549 tumors,57%
same,tumor growth was slowed,HT29 tumors,54%
same,increased the life span of the mice versus control,"leukemia, P388; 1000 mg/kg",129%
same,increased the life span of the mice versus control,"leukemia, P388; 2000 mg/kg",148%
same,increased the life span of the mice versus control,"leukemia, P388; 4000 mg/kg",189%
same,increased the life span versus control,"melanoma, B 16; 1000 mg/kg",131%
same,increased the life span versus control,"melanoma, B 16; 2000 mg/kg",163%
same,increased the life span versus control,"melanoma, B 16; 4000 mg/kg",187%
same,inhibition at 4 µg/mL,"HIV; Human immunodeficiency virus 1, 4 μg/ml",100%
"CCCCNC(=O)n1c(NC(=O)OC)nc2ccccc21 [benomyl, methyl 1-(butylcarbamoyl)2-benzimidazolecarbamate]",IC50,"HT29 colon tumor cells; HT29, first column",0.742 µg/mL
same,IC50,"HT29 colon tumor cells; HT29, second column",0.747 µg/mL
same,IC50,"MX1 breast tumor cells; MX1, first column",1.42 µg/mL
same,IC50,"MX1 breast tumor cells; MX1, second column",2.42 µg/mL
same,IC50,"A549 lung tumor cells; A549, first column",0.98 µg/mL
same,IC50,"A549 lung tumor cells; A549, second column",1.02 µg/mL
same,CC50,[5]; [7],0.728 µg/mL
same,CC50,[5]; [8],0.682 µg/mL
same,CC50,"[5]; fibroblasts, first value",3.24 µg/mL
same,CC50,"[5]; fibroblasts, second value",2.81 µg/mL
same,CC50,"[5]; kerotinoyle cells, first value",3.26 µg/mL
same,CC50,[5]; [9],2.4 µg/mL
same,toxicity to normal healthy cells relative to adriamycin,normal healthy cells,much less toxic to normal healthy cells than adriamycin
CCC1=C[C@@H]2CN(C1)Cc1c([nH]c3ccccc13)[C@@](C(=O)OC)(c1cc3c(cc1OC)N(C)[C@H]1[C@@](O)(C(=O)OC)[C@H](OC(C)=O)[C@]4(CC)C=CCN5CC[C@]31[C@@H]54)C2 [Navelbine],% increase in survival time vs. untreated mice,melanoma; Navelbine alone 0.5 mg/kg,190%
same,% increase in survival time vs. untreated mice,melanoma; Navelbine alone 1.0 mg/kg,245%
same,% increase in survival time vs. untreated mice,melanoma; Navelbine alone 2.0 mg/kg,265%
